Experimental data: patent US20250270513A1, “METHOD FOR PRODUCING CULTURED TISSUE, AND PREPARATION FOR EXTERNAL APPLICATION” (National University Corporation Ehime University, priority 2019, published 2025)

Columns and labels:
[1] = tested on: EREG, ARG2, CCL2, IL1RN, PGF, SPP1, VEGFA, DPT and FGF2 mRNA; test: qPCR of genes in fibroblasts in collagen gel, 3 days (Test Example 3-4); format: cell-based, human; settings: 100 mg/mL trehalose (Treha 100)
Procedure: A collagen gel containing NHDF was prepared according to the method (1) of Test Example 1. The obtained collagen gel was cultured in DMEM medium containing 0 or 100 mg/mL trehalose, 1% FCS and 1% ABAM for 3 days, and RNA was recovered from the cells. The obtained sample was subjected to the same operation as in Test Example 3-2, and qPCR for genes EREG, ARG2, CCL2, IL1RN, PGF, SPP1, VEGFA, DPT and FGF2 was performed. GAPDH was used as a reference gene.

[2] = tested on: ERK1/2 (Thr202/Tyr204 phosphorylated); test: Western blotting of phosphorylated ERK1/2 in fibroblasts (Test Example 3-1); format: cell-based, human; settings: 0, 10, 100 mg/mL trehalose in medium, 24 hours
Procedure: The cells were further DNA-stained with PI and subjected to FCM, and the proportion of each cell cycle was examined.
(3) Furthermore, proteins were extracted from the fibroblasts obtained in (1) using RIPA buffer (1% protein inhibitor (manufactured by SIGMA)+Phosphatase Inhibitor cocktail (manufactured by SIGMA)). Then, 10 μg of protein per sample was separated by SDS-PAGE by a conventional method, transferred to a PVDF membrane, and then subjected to Western blotting. Phosphorylated ERK1/2 and phosphorylated AKT were detected by ECL Prime Western Blotting Detection Reagent (manufactured by GE Healthcare), using Phospho-p44/p42 MAPK (Erk1/2) (Thr202/Tyr204) (D13.14.4E) XP Rabbit mAb (#4300, Cell Signaling) and Phospho-Akt (Ser473) antibody (#9271, manufactured by Cell Signaling Technology) as a primary antibody, and an anti-rabbit IgG antibody and an anti-mouse IgG antibody manufactured by PROMEGA were used as secondary antibodies, and visualized by Image Quant LAS4010 (manufactured by GE Healthcare).

[3] = tested on: human normal skin keratinocytes; test: Culture of keratinocytes alone without collagen gel containing fibroblasts (Test Example 1); format: cell-based; settings: 100 mg/mL trehalose in medium, no fibroblast collagen gel
Procedure: • (2) Next, the collagen gel (layered dermal cell structure) containing NHDF was pre-cultured for 5 days using a DMEM medium containing 50 μg/ml ascorbic acid, 10 v/v % FCS, and 1 v/v % ABAM. Next, human normal skin keratinocytes suspended in MCDB medium were seeded on the collagen gel surface so as to be 1.28×10^5 cells/cm^2, and a medium obtained by mixing equal amounts of MCDB Type-II medium (Growth Medium 2 in JP-B2-3066624) and EGM was added to an external liquid of the cell culture insert and the inside of the insert, followed by culturing at 37° C. for 2 days.
On the other hand, when 100 mg/mL trehalose was added to the medium of (2) without collagen gel containing fibroblasts and culture was performed with keratinocytes alone, formation of epithelial tissue layer was not observed as in the absence of trehalose.

FGF2 mRNA = test: qPCR of FGF2 gene in monolayer fibroblasts (Test Example 3-2); format: cell-based, human; settings: for FGF2 expression level compared to control without trehalose (vehicle): after 3 hours of culture
Procedure: • (1) NHDF was seeded on a cell culture dish containing 1% FCS and 1% ABAM-containing DMEM medium containing 0, 30, and 100 mg/mL trehalose so as to be 5.5×10^4 cells/cm^2, and cultured for 3, 24, or 48 hours. • (2) Cells under each condition were collected, and mRNA was extracted using RNeasy Mini Kit (manufactured by QIAGEN). CDNA was prepared from mRNA using iScript cDNA Synthesis kit (manufactured by B10-RAD Laboratories). The method was performed according to each manual. Next, quantitative PCR (qPCR) of FGF2 gene was performed. For the reaction, Fast Start Universal Probe Master (Rox) (Roche) and StepOnePlue Real time PCR system were used. As a primer set, TaqMan probes for FGF2 (ThermoFisher Scientific) described in Table 5 were used. GAPDH was used as a reference gene. The number of samples used in each condition was 3.

[4] = tested on: keratinocytes on layered dermal cell structure containing fibroblasts; test: Large scale three-dimensional cultured tissue, confluent keratinocyte sheet, gas-liquid interface culture (Test Example 2); format: cell-based, human; settings: 100 mg/mL trehalose in dermal cell structure; confluent keratinocyte sheet of about 1 cm; 75 mm insert; 5 days
Procedure: • (1) A layered dermal cell structure containing trehalose at a final concentration of 0 or 100 mg/mL was prepared according to the method (1) of Test Example above except that 10 mL of the gel solution I was added to a cell culture insert with a diameter of 75 mm, and 32 mL of the gel solution containing fibroblasts at the same cell density as in (1) was layered. • (2) A ring with a diameter of 1 cm was placed on the obtained collagen gel, and keratinocytes were seeded inside the ring and cultured in MCDB Type-II-EGM (1:1) medium for 2 days. As a result, a sheet of keratinocytes (epithelial cell layer) with a diameter of about 1 cm is formed on the collagen gel. • (3) When the keratinocytes became confluent, the ring was removed and the medium was replaced with CM medium, and gas-liquid interface culture was performed for 5 days in the same manner as in the method (3) of Test Example 1.

[5] = tested on: human normal skin keratinocytes on collagen gel containing pretreated NHDF; test: Three-dimensional cultured skin using fibroblasts pretreated with trehalose (Test Example 4); format: cell-based
Procedure: • (1) NHDF was seeded on a cell culture dish containing 10% FCS and 1% ABAM-containing DMEM medium at a cell density of 4.0×10^4 cells/cm^2. After 24 hours from seeding, at a cell density of 4.5×10^4 cells/cm^2, the medium was replaced with 1% FCS and 1% ABAM-containing DMEM medium containing 0, 30, or 100 mg/mL trehalose, and the cells were incubated at 37° C. for 24 hours. Then, a collagen gel containing 5.0×10^5 cells/ml of the obtained NHDF was prepared under the same conditions as in Test Example 1 except that trehalose was not added. • (2) According to the method of Test Example 1, the obtained NHDF-containing collagen gel was pre-cultured for 5 days, and then human normal skin keratinocytes were seeded and cultured for 2 days at 37° C. • (3) Further, according to the method of Test Example 1, gas-liquid interface culture was performed at 37° C. for 7 days using CM medium.

[6] = tested on: three-dimensional cultured skin (dermal tissue layer fibroblasts); test: Staining test of tissue sections of three-dimensional cultured skin (Test Example 1); format: cell-based, human
Excerpt: • (4) The obtained tissue sections of each three-dimensional cultured skin were stained with HE, EVG, HABP, K10, K5, Alcian blue, SMA and Ki67 by a conventional method. For Ki67 staining, a Ki67 antibody (manufactured by Novocastra Laboratories Ltd) and a secondary antibody (manufactured by Vector Laboratories) were used.

[7] = 100 mg/mL trehalose, after 24 hours
[8] = 100 mg/mL trehalose, after 48 hours

OC[C@H]1O[C@H](O[C@H]2O[C@H](CO)[C@@H](O)[C@H](O)[C@H]2O)[C@H](O)[C@@H](O)[C@@H]1O [trehalose, α, α-trehalose]
mRNA expression levels of genes EREG, ARG2, CCL2, ILIRN, PGF, SPP1, VEGFA, DPT and FGF2 compared to vehicle [1]: significantly increased | phosphorylation of ERK1/2 [2]: promoted as the concentration of trehalose in the medium increases | formation of epithelial tissue layer [3]: not observed | FGF2 expression level compared to control without trehalose (vehicle) (FGF2 mRNA; 30 mg/mL trehalose): increase | expression level of FGF2 mRNA (FGF2 mRNA; 30 mg/mL trehalose, after 48 hours): slightly increased | FGF2 expression level compared to control without trehalose (vehicle) (FGF2 mRNA; 100 mg/mL trehalose): increase | FGF2 mRNA expression level compared to that at the start of the culture (FGF2 mRNA; [7]): still also increased | FGF2 mRNA expression level compared to the control (FGF2 mRNA; [7]): significantly increased | FGF2 mRNA expression level compared to that at the start of the culture (FGF2 mRNA; [8]): still also increased | FGF2 mRNA expression level compared to the control (FGF2 mRNA; [8]): significantly increased | expansion of the epithelial tissue layer during gas-liquid interface culture [4]: expanded to the outer edge of the culture insert | contraction of the collagen gel ([5]; fibroblast cells pre-cultured with trehalose): not observed | enlargement of three-dimensional cultured skin in diameter compared to pre-culturing with medium containing no trehalose ([5]; fibroblasts pre-cultured with 30 mg/mL trehalose for 24 hours before collagen gel preparation): about 1.4 times | area of three-dimensional cultured skin ([5]; fibroblasts pre-cultured with 100 mg/mL trehalose for 24 hours before collagen gel preparation): enlarged to cover the entire cell culture insert | Ki67 positive cells in the dermal tissue layer ([6]; 0, 10, 100 mg/mL trehalose): increased as the concentration of trehalose increased | difference in staining pattern depending on the concentration of trehalose ([6]; HE, EVG, HABP, K10, K5, Alcian blue, SMA stains (all except Ki67), 0, 10, 100 mg/mL): no difference
